Measurements published in PubChem BioAssay AID1919006 (Molecular Pharmacology Branch, DTP, NCI, 2023).
Several values for one entry are separate records, joined by “and”; a condition that tells them apart may be missing. Equal entries are not always repeated.

Test system: 885512-296-R-J2-PDC complex spheroid growth, % test/control
Assay: Anticancer human tumor 885512-296-R-J2-PDC patient-derived breast carcinoma cell line growth inhibition [AhR]
Conditions: for viability, T/C: stronger effect = lower value
From the text: Multicellular complex tumor spheroid response to aryl hydrocarbon receptor antagonists in combination with a variety of drugs and investigational agents in selected tumor cell lines
The current study was undertaken to assess response to aryl hydrocarbon receptor antagonists in combination with standard-of-care drugs and investigational agents in solid tumor complex spheroid models. Complex spheroids include a stromal component modeled by human endothelial cells (HUVEC) and fibroblasts modeled by human mesenchymal stem cells (MSCs). The concentration ranges selected for each drug and investigational agent were based upon clinically achievable concentrations if the clinical Cmax of the agent was known.
Compounds. The drugs and investigational agents: BAY 2416964 (NSC825713), GNF351 (NSC835774), CH-223191 (NSC835775), CPI-455 (NSC825282), aza-TdCyd (NSC777586), decitabine (NSC127716), belinostat (NSC758774), entinostat (NSC756642), pevonedistat (NSC761192), tazemetostat (NSC777109), talazoparib (NSC765396), olaparib (NSC753686), selinexor (NSC780203), nedisertib (M3814, NSC802822), bortezomib (NSC756655), venetoclax (NSC766270), doxorubicin (NSC123127), elimusertib (BAY189344, NSC800525), ceralasertib (AZD6738, NSC777638), TAK-243 (NSC785004), alisertib (NSC759677), etoposide (NSC141540), topotecan (NSC609699), eribulin (NSC707389), gemcitabine (NSC613327), carboplatin (NSC241240), cisplatin (NSC119875), and SN-38 (NSC673596) were obtained from the National Cancer Institute (NCI) Developmental Therapeutics Program Chemical Repository (32). The FDA-approved anticancer drug set is available from the Developmental Therapeutics Program at https://dtp.cancer.gov/organization/dscb/obtaining/available plates.htm. […] The stock solutions were prepared in dimethyl sulfoxide (DMSO, Sigma-Aldrich, St. Louis, MO, cat. D2650), except for the platinum compounds which were prepared in saline (Quality Biological, Gaithersburg, MD, cat. 114-055-101), at 800-fold the tested concentration and stored at -70 degrees C prior to their use. All drugs and investigational agents were tested over a range starting from a high concentration at or near the clinical Cmax and decreasing in half-log increments. If the clinical Cmax for an agent had not been determined, the highest concentration tested was 10 microM (Table 1).
Cell Culture. All cells were maintained in an incubator at 37 degrees C and 5% CO2 with 95% humidity. The PDC lines were cultured according to standard operating procedures established by the NCI PDMR (https://pdmr.cancer.gov). Briefly, all PDCs were thawed and cultured in Matrigel-coated flasks prepared with a working solution of 1X Ham's F-12 nutrient mix, without supplementation (Invitrogen, Waltham, MA, cat. 11765054), 100 U/mL penicillin-streptomycin (Invitrogen, cat. 15140122), and 2.5% Matrigel (Corning Inc., Corning, NY, cat. 354248) for the first three passages. All PDCs were cultured in complete DMEM/F-12 media containing advanced DMEM/F-12 (Invitrogen, cat. 12634028), 4.9% defined fetal bovine serum, heat inactivated (HyClone Laboratories Inc., Logan, UT, cat. SH30070.03HI), 389 ng/mL hydrocortisone (Sigma-Aldrich, cat. H4001), 9.7 ng/mL human EGF recombinant protein (Invitrogen, cat. PHG0313), 23.4 microg/mL adenine (Sigma-Aldrich, cat. A2786), 97.3 U/mL penicillin-streptomycin (Invitrogen, cat. 15140122), 1.9 mM L-glutamine (Invitrogen, cat. 25030081), and 9.7 microM Y-27632 dihydrochloride (Tocris Bioscience, Bristol, United Kingdom, cat. 1254). The PDCs were cultured in complete DMEM/F12 media without 10 microM Y-27632 dihydrochloride for at least two passages prior to the screen. The established cell lines NCI-H1341 and […] were cultured in DMEM/F-12, HEPES (Invitrogen, cat. 11330032), 5% defined fetal bovine serum (HyClone Laboratories Inc., cat. SH30070.03), ITS premix universal culture supplement [insulin (5 microg/mL), transferrin (5 microg/mL), and selenious acid (5 ng/mL)] […]

[1] = curve of first compound, second compound 0.1 µM
[2] = curve of first compound, second compound 0.316 µM
[3] = curve of first compound, second compound 1 µM
[4] = curve of first compound, second compound 3.16 µM
[5] = curve of first compound, second compound 10 µM
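Note: spheroids exposed to compounds for seven days.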

SMILES: CC[C@@]1(O)C(=O)OCc2c1cc1n(c2=O)Cc2cc3c(CN(C)C)c(O)ccc3nc2-1 + Cc1cncc(-c2nc(NCCc3c[nH]c4ccccc34)c3ncn(C(C)C)c3n2)c1
- IC50 [1]: 0.00546 µM
- IC50 [2]: 0.00572 µM
- IC50 [3]: 0.00447 µM
- IC50 [4]: 0.00215 µM
- IC50 [5]: < 0.000316 µM
- viability, T/C (second compound 0.1 µM, first compound 0.000316 µM): 87.8%
- viability, T/C (second compound 0.1 µM, first compound 0.001 µM): 96.1%
- viability, T/C (second compound 0.1 µM, first compound 0.00316 µM): 67.6%
- viability, T/C (second compound 0.1 µM, first compound 0.01 µM): 29.2%
- viability, T/C (second compound 0.1 µM, first compound 0.0316 µM): 9.48%
- viability, T/C (second compound 0.1 µM, first compound 0.1 µM): 6.96%
- viability, T/C (second compound 0.316 µM, first compound 0.000316 µM): 102%
- viability, T/C (second compound 0.316 µM, first compound 0.001 µM): 88.1%
- viability, T/C (second compound 0.316 µM, first compound 0.00316 µM): 71.9%
- viability, T/C (second compound 0.316 µM, first compound 0.01 µM): 30.6%
- viability, T/C (second compound 0.316 µM, first compound 0.0316 µM): 9.89%
- viability, T/C (second compound 0.316 µM, first compound 0.1 µM): 4.62%
- viability, T/C (second compound 1 µM, first compound 0.000316 µM): 90.4%
- viability, T/C (second compound 1 µM, first compound 0.001 µM): 82.2%
- viability, T/C (second compound 1 µM, first compound 0.00316 µM): 62%
- viability, T/C (second compound 1 µM, first compound 0.01 µM): 23.6%
- viability, T/C (second compound 1 µM, first compound 0.0316 µM): 6.8%
- viability, T/C (second compound 1 µM, first compound 0.1 µM): 6.23%
- viability, T/C (second compound 3.16 µM, first compound 0.000316 µM): 62.9%
- viability, T/C (second compound 3.16 µM, first compound 0.001 µM): 60.1%
- viability, T/C (second compound 3.16 µM, first compound 0.00316 µM): 44.5%
- viability, T/C (second compound 3.16 µM, first compound 0.01 µM): 27.3%
- viability, T/C (second compound 3.16 µM, first compound 0.0316 µM): 12.9%
- viability, T/C (second compound 3.16 µM, first compound 0.1 µM): 7.38%
- viability, T/C (second compound 10 µM, first compound 0.000316 µM): 21.8%
- viability, T/C (second compound 10 µM, first compound 0.001 µM): 21.9%
- viability, T/C (second compound 10 µM, first compound 0.00316 µM): 20.9%
- viability, T/C (second compound 10 µM, first compound 0.01 µM): 13.7%
- viability, T/C (second compound 10 µM, first compound 0.0316 µM): 11.5%
- viability, T/C (second compound 10 µM, first compound 0.1 µM): 4.72%

SMILES: Nc1ncn(C2CC(O)C(CO)S2)c(=O)n1 (stereo unspecified)
- viability, T/C (compound 0.000949 µM): 109% and 103% and 93%
- viability, T/C (compound 0.003 µM): 93.6% and 108% and 103%
- viability, T/C (compound 0.00949 µM): 96.9% and 120% and 104%
- viability, T/C (compound 0.03 µM): 89.1% and 99.3% and 116%
- viability, T/C (compound 0.0949 µM): 56.2% and 61.2% and 75.9%
- viability, T/C (compound 0.3 µM): 31.1% and 37% and 43.6%
- IC50 (curve of compound): 0.129 µM and 0.16 µM and 0.239 µM

SMILES: O=C(C=Cn1cnc(-c2cc(C(F)(F)F)cc(C(F)(F)F)c2)n1)NNc1cnccn1
- viability, T/C (compound 0.00949 µM): 95.6% and 113% and 96.3%
- viability, T/C (compound 0.03 µM): 100% and 113% and 117%
- viability, T/C (compound 0.0949 µM): 38% and 25% and 25.8%
- viability, T/C (compound 0.3 µM): 5.56% and 4.15% and 4.46%
- viability, T/C (compound 0.949 µM): 2.2% and 1.47% and 2.93%
- viability, T/C (compound 3 µM): 1.21% and 0.91% and 1.13%
- IC50 (curve of compound): 0.0753 µM and 0.0683 µM and 0.0671 µM

SMILES: COc1cccc2c1C(=O)c1c(O)c3c(c(O)c1C2=O)CC(O)(C(=O)CO)CC3OC1CC(N)C(O)C(C)O1 (stereo unspecified)
- viability, T/C (compound 0.0316 µM): 22.1% and 16.4% and 24.6%
- viability, T/C (compound 0.1 µM): 20.5% and 11.7% and 14.2%
- viability, T/C (compound 0.316 µM): 8.97% and 3.94% and 5.3%
- viability, T/C (compound 1 µM): 0.67% and 0.49% and 0.27%
- viability, T/C (compound 3.16 µM): 1.99% and 1.41% and 0.92%
- viability, T/C (compound 10 µM): 1.58% and 1.1% and 0.8%
- IC50 (curve of compound): < 0.0316 µM

SMILES: CCN(c1cc(-c2ccc(CN3CCOCC3)cc2)cc(C(=O)NCc2c(C)cc(C)[nH]c2=O)c1C)C1CCOCC1 + Cc1cncc(-c2nc(NCCc3c[nH]c4ccccc34)c3ncn(C(C)C)c3n2)c1
- IC50 [1]: > 3 µM
- IC50 [2]: > 3 µM
- IC50 [3]: > 3 µM
- IC50 [4]: > 3 µM
- IC50 [5]: < 0.00949 µM
- viability, T/C (second compound 0.1 µM, first compound 0.00949 µM): 98.8%
- viability, T/C (second compound 0.1 µM, first compound 0.03 µM): 104%
- viability, T/C (second compound 0.1 µM, first compound 0.0949 µM): 91.3%
- viability, T/C (second compound 0.1 µM, first compound 0.3 µM): 87.8%
- viability, T/C (second compound 0.1 µM, first compound 0.949 µM): 94.8%
- viability, T/C (second compound 0.1 µM, first compound 3 µM): 83.3%
- viability, T/C (second compound 0.316 µM, first compound 0.00949 µM): 102%
- viability, T/C (second compound 0.316 µM, first compound 0.03 µM): 105%
- viability, T/C (second compound 0.316 µM, first compound 0.0949 µM): 98%
- viability, T/C (second compound 0.316 µM, first compound 0.3 µM): 94.9%
- viability, T/C (second compound 0.316 µM, first compound 0.949 µM): 88.5%
- viability, T/C (second compound 0.316 µM, first compound 3 µM): 74.8%
- viability, T/C (second compound 1 µM, first compound 0.00949 µM): 91.4%
- viability, T/C (second compound 1 µM, first compound 0.03 µM): 93.5%
- viability, T/C (second compound 1 µM, first compound 0.0949 µM): 85.7%
- viability, T/C (second compound 1 µM, first compound 0.3 µM): 73.6%
- viability, T/C (second compound 1 µM, first compound 0.949 µM): 72.8%
- viability, T/C (second compound 1 µM, first compound 3 µM): 80.1%
- viability, T/C (second compound 3.16 µM, first compound 0.00949 µM): 58.6%
- viability, T/C (second compound 3.16 µM, first compound 0.03 µM): 62.1%
- viability, T/C (second compound 3.16 µM, first compound 0.0949 µM): 59.9%
- viability, T/C (second compound 3.16 µM, first compound 0.3 µM): 58.8%
- viability, T/C (second compound 3.16 µM, first compound 0.949 µM): 53.5%
- viability, T/C (second compound 3.16 µM, first compound 3 µM): 54.8%
- viability, T/C (second compound 10 µM, first compound 0.00949 µM): 21.8%
- viability, T/C (second compound 10 µM, first compound 0.03 µM): 24.6%
- viability, T/C (second compound 10 µM, first compound 0.0949 µM): 24.4%
- viability, T/C (second compound 10 µM, first compound 0.3 µM): 18.8%
- viability, T/C (second compound 10 µM, first compound 0.949 µM): 13%
- viability, T/C (second compound 10 µM, first compound 3 µM): 8.18%
